In brackets after ≈: the same amount, converted by molar mass.
Columns and labels:
[1] = system: B. subtilis 168; assay: fitness (endpoint OD595 vs no drug) (fraction); higher = more growth
How it was run: (§1)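 Each well of a 384-well plate received 30 µl of culture at OD595 0.01, or 55 µl for S. pneumoniae. TSB, LB Lennox or CY served as media at 37 °C. OD595 was taken every 30 min for 14 h and corrected by subtracting the first reading. Fitness is the optical density at stationary-phase entry divided by the robust mean of no-drug controls, capped at 1.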

[2] = system: S. aureus DSM 20231; assay: as above
How it was run: as §1

[3] = system: S. aureus Newman; assay: as above
How it was run: as §1

[4] = system: S. pneumoniae D39V; assay: as above
How it was run: as §1

[5] = system: B. subtilis 168; assay: Bliss interaction score (quartile over a dose matrix) (fitness difference); higher = more antagonism (negative = synergy)
How it was run: (§2)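 Each plate was normalised to the robust mean of its own no-drug wells, using OD595 at entry into stationary phase, with values capped at 1. This normalised growth is the fitness value. The Bliss score is the difference between observed and product-expected fitness, with single-drug fitness inferred from the combination data and quartiles taken over technical, biological and donor/recipient replicates.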

[6] = system: S. aureus DSM 20231; assay: as above
How it was run: as §2

[7] = system: S. aureus Newman; assay: as above
How it was run: as §2

[8] = system: S. pneumoniae D39V; assay: as above
How it was run: as §2

[9] = system: S. pneumoniae D39V
[10] = system: S. aureus DSM 20231; conditions: main component drawn
[11] = system: S. aureus Newman; conditions: main component drawn
[12] = system: B. subtilis 168
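Throughout, for Bliss interaction score (quartile over a dose matrix): first quartile when negative (synergy) and third quartile when positive (antagonism).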

COc1c(N2C[C@@H]3CCCN[C@@H]3C2)c(F)cc2c(=O)c(C(=O)O)cn(C3CC3)c12 [Moxifloxacin] + Cc1cc(NS(=O)(=O)c2ccc(N)cc2)no1 [Sulfamethoxazol]
one replicate
Conditions	fitness
[1], first compound 0.0312 µg/mL, partner 0.5 µg/mL	0.0261
[1], first compound 0.0625 µg/mL, partner 0.5 µg/mL	0.034
[1], first compound 0.125 µg/mL, partner 0.5 µg/mL	0.0283
[2], first compound 0.06 µg/mL, partner 1 µg/mL	0.669
[2], first compound 0.06 µg/mL, partner 2 µg/mL	0.655
[2], first compound 0.06 µg/mL, partner 4 µg/mL	0.655
[2], first compound 0.12 µg/mL, partner 1 µg/mL	0.445
[2], first compound 0.12 µg/mL, partner 2 µg/mL	0.44
[2], first compound 0.12 µg/mL, partner 4 µg/mL	0.431
[3], first compound 0.0075 µg/mL, partner 8 µg/mL	0.934
[3], first compound 0.015 µg/mL, partner 8 µg/mL	0.887
[3], first compound 0.03 µg/mL, partner 8 µg/mL	0.784
[4], first compound 0.0037 µg/mL, partner 1 µg/mL	0.897
[4], first compound 0.0037 µg/mL, partner 2 µg/mL	0.856
[4], first compound 0.0037 µg/mL, partner 4 µg/mL	0.797
[4], first compound 0.0075 µg/mL, partner 1 µg/mL	0.869
[4], first compound 0.0075 µg/mL, partner 2 µg/mL	0.857
[4], first compound 0.0075 µg/mL, partner 4 µg/mL	0.797
[4], first compound 0.015 µg/mL, partner 1 µg/mL	0.842
[4], first compound 0.015 µg/mL, partner 2 µg/mL	0.828
[4], first compound 0.015 µg/mL, partner 4 µg/mL	0.79

fitness
Conditions	partner 1 µg/mL	partner 2 µg/mL	partner 4 µg/mL
[1], first compound 0.0312 µg/mL	0.0226	0.0442	0.0303
[1], first compound 0.0625 µg/mL	0.0292	0.0328	0.0239
[1], first compound 0.125 µg/mL	0.0176	0.0212	0.0185
[1], first compound 2 µg/mL	0.0112	0.0253	0.0113
[1], first compound 4 µg/mL	0.0152	0.0241	0.0125
[1], first compound 8 µg/mL	0.0212	0.0227	0.0093
[2], first compound 0.0075 µg/mL	0.78	0.829	0.765
[2], first compound 0.015 µg/mL	0.69	0.724	0.76
[2], first compound 0.03 µg/mL	0.586	0.682	0.692
[3], first compound 0.0075 µg/mL	0.776	0.795	0.749
[4], first compound 0.005 µg/mL	0.944	0.969	0.958
[4], first compound 0.01 µg/mL	0.949	0.955	0.987
[4], first compound 0.02 µg/mL	0.894	0.912	0.926

Conditions	Bliss interaction score
[5]	-0.0331
[6]	-0.0783
[7]	-0.071
[8]	-0.0536

COc1c(N2C[C@@H]3CCCN[C@@H]3C2)c(F)cc2c(=O)c(C(=O)O)cn(C3CC3)c12 [Moxifloxacin] + Cc1onc(-c2ccccc2)c1C(=O)N[C@@H]1C(=O)N2[C@@H]1SC(C)(C)[C@@H]2C(=O)O [Oxacillin]
Conditions	fitness
[1], first compound 0.0312 µg/mL, partner 0.0078 µg/mL	0.064
[1], first compound 0.0312 µg/mL, partner 0.0155 µg/mL	0.0573
[1], first compound 0.0312 µg/mL, partner 0.031 µg/mL	0.0475
[1], first compound 0.0625 µg/mL, partner 0.0078 µg/mL	0.0466
[1], first compound 0.0625 µg/mL, partner 0.0155 µg/mL	0.037
[1], first compound 0.0625 µg/mL, partner 0.031 µg/mL	0.0491
[1], first compound 0.125 µg/mL, partner 0.0078 µg/mL	0.0548
[1], first compound 0.125 µg/mL, partner 0.0155 µg/mL	0.0482
[1], first compound 0.125 µg/mL, partner 0.031 µg/mL	0.0479
[1], first compound 2 µg/mL, partner 0.002 µg/mL	0.0356
[1], first compound 2 µg/mL, partner 0.004 µg/mL	0.0464
[1], first compound 2 µg/mL, partner 0.008 µg/mL	0.0465
[1], first compound 4 µg/mL, partner 0.002 µg/mL	0.0347
[1], first compound 4 µg/mL, partner 0.004 µg/mL	0.0433
[1], first compound 4 µg/mL, partner 0.008 µg/mL	0.0406
[1], first compound 8 µg/mL, partner 0.002 µg/mL	0.0147
[1], first compound 8 µg/mL, partner 0.004 µg/mL	0.021
[1], first compound 8 µg/mL, partner 0.008 µg/mL	0.0219
[2], first compound 0.0075 µg/mL, partner 0.0156 µg/mL	0.665
[2], first compound 0.0075 µg/mL, partner 0.0312 µg/mL	0.623
[2], first compound 0.0075 µg/mL, partner 0.0625 µg/mL	0.483
[2], first compound 0.015 µg/mL, partner 0.0156 µg/mL	0.621
[2], first compound 0.015 µg/mL, partner 0.0312 µg/mL	0.576
[2], first compound 0.015 µg/mL, partner 0.0625 µg/mL	0.475
[2], first compound 0.03 µg/mL, partner 0.0156 µg/mL	0.561
[2], first compound 0.03 µg/mL, partner 0.0312 µg/mL	0.527
[2], first compound 0.03 µg/mL, partner 0.0625 µg/mL	0.417
[3], first compound 0.0075 µg/mL, partner 0.0156 µg/mL	0.676
[3], first compound 0.0075 µg/mL, partner 0.0312 µg/mL	0.633
[3], first compound 0.0075 µg/mL, partner 0.0625 µg/mL	0.515
[3], first compound 0.015 µg/mL, partner 0.0156 µg/mL	0.575
[3], first compound 0.015 µg/mL, partner 0.0312 µg/mL	0.487
[3], first compound 0.015 µg/mL, partner 0.0625 µg/mL	0.417
[3], first compound 0.03 µg/mL, partner 0.0156 µg/mL	0.116
[3], first compound 0.03 µg/mL, partner 0.0312 µg/mL	0.0437
[3], first compound 0.03 µg/mL, partner 0.0625 µg/mL	0.0665
[4], first compound 0.0037 µg/mL, partner 0.01 µg/mL	0.885
[4], first compound 0.0037 µg/mL, partner 0.02 µg/mL	0.769
[4], first compound 0.0037 µg/mL, partner 0.04 µg/mL	0.191
[4], first compound 0.005 µg/mL, partner 0.01 µg/mL	0.991
[4], first compound 0.005 µg/mL, partner 0.02 µg/mL	1
[4], first compound 0.0075 µg/mL, partner 0.01 µg/mL	0.9
[4], first compound 0.0075 µg/mL, partner 0.02 µg/mL	0.784
[4], first compound 0.0075 µg/mL, partner 0.04 µg/mL	0.198
[4], first compound 0.01 µg/mL, partner 0.01 µg/mL	0.993
[4], first compound 0.01 µg/mL, partner 0.02 µg/mL	0.983
[4], first compound 0.015 µg/mL, partner 0.01 µg/mL	0.84
[4], first compound 0.015 µg/mL, partner 0.02 µg/mL	0.814
[4], first compound 0.015 µg/mL, partner 0.04 µg/mL	0.276
[4], first compound 0.02 µg/mL, partner 0.01 µg/mL	0.993
[4], first compound 0.02 µg/mL, partner 0.02 µg/mL	0.978

fitness, one replicate
Conditions	partner 0.0156 µg/mL	partner 0.0312 µg/mL	partner 0.0625 µg/mL	partner 0.075 µg/mL	partner 0.15 µg/mL	partner 0.3 µg/mL
[1], first compound 0.0312 µg/mL	–	–	–	0.0346	0.0314	0.0247
[1], first compound 0.0625 µg/mL	–	–	–	0.0324	0.0252	0.0441
[1], first compound 0.125 µg/mL	–	–	–	0.0269	0.0127	0.018
[2], first compound 0.06 µg/mL	0.628	0.559	0.524	–	–	–
[2], first compound 0.12 µg/mL	0.441	0.379	0.37	–	–	–

Conditions	Bliss interaction score
[5]	0.0214
[6]	0.0441
[7]	-0.0642
[8]	0.0911

C/C(=C\C(=O)OCCCCCCCCC(=O)O)C[C@@H]1OC[C@H](C[C@@H]2O[C@H]2[C@@H](C)[C@H](C)O)[C@@H](O)[C@H]1O [Pseudomonic acid]
Conditions	MIC [mg/L]
[9]	0.25 (≈ 0.499 µM)

[4]
Conditions	fitness
0.03 µg/mL	0.971
0.06 µg/mL	0.822
0.12 µg/mL	0.443

CCCCCCCCCC(=O)N[C@H]1[C@H](Oc2c3cc4cc2Oc2ccc(cc2Cl)[C@@H](O[C@@H]2O[C@H](CO)[C@@H](O)[C@H](O)[C@H]2NC(C)=O)[C@@H]2NC(=O)[C@H](NC(=O)[C@@H]4NC(=O)[C@H]4NC(=O)[C@@H](Cc5ccc(c(Cl)c5)O3)NC(=O)[C@H](N)c3ccc(O)c(c3)Oc3cc(O)cc4c3)c3ccc(O)c(c3)-c3c(O[C@H]4O[C@H](CO)[C@@H](O)[C@H](O)[C@@H]4O)cc(O)cc3[C@@H](C(=O)O)NC2=O)O[C@H](CO)[C@@H](O)[C@@H]1O [Teicoplanin]
Conditions	MIC [mg/L]
[10]	0.7 (≈ 0.372 µM)
[11]	0.7 (≈ 0.372 µM)

Conditions	MIC [mg/L]
[9], main component drawn	0.062 (≈ 0.033 µM)

fitness, main component drawn
Conditions	0.1562 µg/mL	0.3125 µg/mL	0.625 µg/mL	1.25 µg/mL
[2]	≥ 1	≥ 1	≥ 1	≥ 1
[3]	≥ 1	≥ 1	≥ 1	–

COc1cc(Cc2cnc(N)nc2N)cc(OC)c1OC [Trimethoprim]
Conditions	MIC [mg/L]
[9]	4 (≈ 13.8 µM)
[12]	2.5 (≈ 8.61 µM)

fitness
Conditions	0.125 µg/mL	0.25 µg/mL	0.5 µg/mL	1 µg/mL	2 µg/mL
[1]	0.623	0.478	0.45	0.334	0.31
[2]	0.8	0.662	0.143	–	–
[3]	0.857	0.725	0.248	–	–
[4]	–	–	0.924	0.658	0.306

From the supplement of paper PMC10627819
